In paper PMC6770581, “New Thalidomide-Resembling Dicarboximides Target ABC50 Protein and Show Antileukemic and Immunomodulatory Activities” (Biomolecules, 2019):
Where two headings read alike, the source gives them in different places.

What was measured:
[1] = tested on: HUVEC (human umbilical vein endothelial cells); experiment: MTT cytotoxicity assay, HUVEC; assay type: cell-based; conditions: 48 h, mean ± SD
Experimental: (§1) Human umbilical vein endothelial cells (purchased from Life Technologies, Carlsbad, CA, USA) were cultured according to the manufacturer’s instructions in Medium 200 supplemented with Low Serum Growth Supplement. 1 × 10^4 cells were seeded on each well on a 96-well plate (Nunc, Roskilde, Denmark). The HeLa (human cervix carcinoma, cat. #93021013), CFPAC (human pancreatic adenocarcinoma, cat. #91112501), K562 (chronic myelogenous leukemia, cat. #89121407), HL-60 (acute myelogenous leukemia, cat. #98070106), and MOLT-4 (Human acute T lymphoblastic leukemia, cat. #85011413) cells were purchased from European Collection of Authenticated Cell Cultures (ECACC). They were cultured in an RPMI 1640 medium supplemented with antibiotics (streptomycin, penicillin) and 10% fetal calf serum (20% for HL60), in a 5% CO2-95% air atmosphere. 7 × 10^3 cells were seeded on each well on a 96-well plate (Nunc). 24 hours later the cells were exposed to the test compounds. The aliquots of stock solutions of the test compounds (freshly prepared in DMSO) were added to the cell cultures to yield final concentrations of 1, 10^−1, 10^−2, 10^−3, 10^−4, and 10^−5 mM. The concentration of DMSO in the cell culture medium was 1%. The IC50 value (the concentration of a test compound required to reduce the cell survival fraction to 50% of the control) was calculated from a dose-response curve and used as a measure of cellular sensitivity to a given treatment. The IC50 values are given as means (± standard deviation (SD)) from 2 independent experiments with 4 technical replicates. The cytotoxicity of all compounds was determined by the MTT (3-(4,5-dimethylthiazol-2-yl)-2,5-diphenyltetrazolium bromide) assay (Sigma, St. Louis, MO, USA). Briefly, after 24 h or 48 h of incubation with a given compound, the cells were treated with the MTT reagent and incubation was continued for 2 h. MTT-formazan crystals were dissolved in 20% SDS and 50% DMF at pH 4.7 and VIS light absorption was measured at 570 and 650 nm on a microplate reader FLUOstar Omega (BMG Labtech, Offenburg, Germany). As a control (100% viability), cells grown in the presence of 1% DMSO were used.

HeLa cells [2] = experiment: MTT cytotoxicity assay, HeLa; assay type: cell-based; conditions: Homo sapiens, 48 h, mean ± SD
Experimental: as §1

MOLT-4 cells = experiment: MTT cytotoxicity assay, MOLT-4; assay type: cell-based; conditions: Homo sapiens, 48 h, mean ± SD
Experimental: as §1

K562 cells [3] = experiment: MTT cytotoxicity assay, K562; assay type: cell-based; conditions: Homo sapiens, 48 h, mean ± SD
Experimental: as §1

CFPAC cells = experiment: MTT cytotoxicity assay, CFPAC; assay type: cell-based; conditions: Homo sapiens, 48 h, mean ± SD
Experimental: as §1

HeLa cells [4] = conditions: 48 h, MTT, mean ± SD; cited from earlier work
[5] = tested on: HUVEC (human umbilical vein endothelial cells); conditions: 48 h, MTT, mean ± SD; cited from earlier work
K562 cells [6] = conditions: 48 h, MTT, mean ± SD; cited from earlier work
HL-60 cells = conditions: 48 h, MTT, mean ± SD; cited from earlier work
K562 cells [7] = experiment: Annexin V/PI or 7-AAD flow cytometry of apoptosis, K562; assay type: cell-based, human; conditions: K562, 5× IC50 (3 10 µM, 6 5 µM, 5 5 µM), staurosporine 1 µM; different incubation times for 3, 6 and 5
Experimental: The phosphatidylserine on the extracellular side of cell membranes was quantified using an FITC Annexin V Apoptosis Detection Kit I (BD Pharmingen, San Diego, CA, USA) according to the manufacturer’s instruction. 10^6 cells were seeded on a 6-well plate (Nunc). […] The control cells were exposed to 1% DMSO or 1μM staurosporine. After treatment the cells were centrifuged at 700 rpm (120× g) for 5 min, washed twice with cold PBS and then resuspended in 1x binding buffer to a density of 10^6 cells/ml. 100 µL of the resuspended cells was stained in the dark with 5 μl of Annexin V-fluoroscein isothiocyanate (FITC) solution and 10 µL propidium iodide (PI) solution for 15 min at room temperature. The samples were then diluted with 400 μL of a binding buffer and within 1 h analyzed with a flow cytometer (BD FACSCalibur^TM, BD Biosciences, San Jose, CA, USA). After treatment, four populations of cells were assessed: (1) viable (neither apoptotic nor necrotic, Annexin V-FITC and PI negative), (2) apoptotic (Annexin V-FITC positive and PI negative), (3) late apoptotic (Annexin V-FITC and PI positive), and (4) necrotic (Annexin V-FITC negative and PI positive).
0.15 × 10^6 cells/ml were seeded on a 6-well plate (Nunclon, Thermo Fisher Scientific, Waltham, MA, USA). Following 24 h preincubation the cells were treated with either the compound or 1% DMSO (control) for 24 or 48 h. After indicated time, the cells were washed with cold PBS (w/o Mg^2+, Ca^2+), stained with Annexin V (FITC Annexin V Apoptosis Detection Kit with 7-aminoactinomycin D (7-AAD), Biolegend, San Diego, CA, USA) according to manufacturer instructions and analysed using BD FACSCalibur flow cytometer. Obtained Flow Cytometry Standard files were analyzed using BD FACSDiva Software (FACSDiva Version 6.1.3, Becton Dickinson Biosciences, San Jose, CA, USA). The experiment was performed three times in at least two technical replicates.

ABC50 = ABC50 (Homo sapiens, UniProt Q8NE71); experiment: Streptavidin-agarose pull-down from K562 cell lysate with LC-MS-MS/MS and Western blot identification; assay type: binding; design: endogenous in cells; host or cells: K562 cell lysate
Experimental: Cells were lysed in TBS buffer containing 1% Triton X-100 and Complete® protease inhibitor cocktail (Roche) for 15 min on ice with occasional vortexing. Insoluble material was centrifuged (12,000 rpm, 15 min, 4 °C) and supernatants were collected. Total protein concentration was measured with DC Protein Assay (Bio-Rad, Hercules, CA, USA). Cell lysates containing 30 µg of total protein were mixed with Laemli buffer supplemented with SDS and β-mercaptoethanol, denatured (10 min, 95 °C) and subjected to sodium dodecyl sulfate polyacrylamide gel electrophoresis (SDS-PAGE) electrophoresis (4% stacking and 10% resolving gels). Resolved proteins were electrotransferred (semi-dry, 90 min, 1.5 mA/cm^2) to a 0.45 µm nitrocellulose membrane (Thermo Scientific, Waltham, MA, USA). Membranes were blocked for 2 hours in TBST buffer (20 mM Tris-HCl pH 7.5, 0.9% NaCl, 0.1% Tween 20) containing 5% BSA (BioShop, Burlington, ON, Canada) and probed with primary antibodies (overnight at 4 °C) diluted in TBST buffer with 0.5% BSA. Tubulin served as a loading control for IB experiments. Anti IKZF3 (rabbit monoclonal, dilution 1:500), anti IKZF1 (rabbit polyclonal, dilution 1:500) were from Abcam. Anti IRF4 (rabbit polyclonal, dilution 1:500) were from Cell Signaling Technology. Anti α-tubulin (mouse monoclonal IgG, 1:1000) was from Sigma Aldrich. Anti ABC50 antibodies (mouse monoclonal ABC5H06, dilution 1:100) was from Abcam. After extensive washing with TBST buffer, membranes were probed with secondary goat anti-rabbit or goat anti-mouse HRP-conjugated IgG (1:5000 in TBST, Santa Cruz Biotech, Dallas, TX, USA) for 45 min at room temperature. Membranes were washed in TBST buffer and the chemiluminescent signal was developed with ECL Plus Western Blotting Substrate (Thermo Scientific) and visualized in Syngene G:Box detection system. Protein bands intensities were analysed using Image Quant (version 5.0, GE Healthcare Life Sciences, Pittsburgh, PA, USA).
300 nmoles of biotinylated 6b was added to 0.6 mL of the high capacity streptavidin agarose resin (Thermo Scientific, Waltham, MA, USA) equilibrated in 50% DMSO and incubated for 2 h (room temperature, gently mixing, total volume 0.7 mL). The K562 cell lysate was prepared in the buffer containing 0.5% NP-40 and supplemented with protease inhibitors coctail (Roche). Next, the beads with immobilized 6b were added to the K562 cell lysate (9 mg of total protein) and incubated for 2 h at 4 °C with gently mixing. As a control, K562 cell lysate incubated with the streptavidin agarose beads was used. After incubation the beads were centrifuged (2000 rpm, 2 min, 4 °C) and washed 6 times with 5 mL of lysis buffer. After the last wash, the beads were resuspended in Laemli buffer and denatured 10 min at 95 °C. Released proteins (40 µL/well) were separated by SDS-PAGE (4% stacking, 8% resolving gel) and silver stained with Pierce Silver Stain Kit (Thermo Scientific, Waltham, MA, USA). Bands of interest were cut out of the gel and digested with trypsin. Tryptic peptides were separated by liquid chromatography (LC) and analyzed by LC-MS-MS/MS with Orbitrap mass spectrometer (Thermo). The sequences of the MS/MS spectra were identified by correlation with the human protein sequence database (Sprot 2016_11, H.) using MASCOT software (version 2.6.2, Matrix Science Inc., Boston, MA, USA) (http://www.matrixscience.com/). The significance threshold was p < 0.05 and ions score or expect cut-off was 22.

Sequence of ABC50 (Q8NE71 whole entry): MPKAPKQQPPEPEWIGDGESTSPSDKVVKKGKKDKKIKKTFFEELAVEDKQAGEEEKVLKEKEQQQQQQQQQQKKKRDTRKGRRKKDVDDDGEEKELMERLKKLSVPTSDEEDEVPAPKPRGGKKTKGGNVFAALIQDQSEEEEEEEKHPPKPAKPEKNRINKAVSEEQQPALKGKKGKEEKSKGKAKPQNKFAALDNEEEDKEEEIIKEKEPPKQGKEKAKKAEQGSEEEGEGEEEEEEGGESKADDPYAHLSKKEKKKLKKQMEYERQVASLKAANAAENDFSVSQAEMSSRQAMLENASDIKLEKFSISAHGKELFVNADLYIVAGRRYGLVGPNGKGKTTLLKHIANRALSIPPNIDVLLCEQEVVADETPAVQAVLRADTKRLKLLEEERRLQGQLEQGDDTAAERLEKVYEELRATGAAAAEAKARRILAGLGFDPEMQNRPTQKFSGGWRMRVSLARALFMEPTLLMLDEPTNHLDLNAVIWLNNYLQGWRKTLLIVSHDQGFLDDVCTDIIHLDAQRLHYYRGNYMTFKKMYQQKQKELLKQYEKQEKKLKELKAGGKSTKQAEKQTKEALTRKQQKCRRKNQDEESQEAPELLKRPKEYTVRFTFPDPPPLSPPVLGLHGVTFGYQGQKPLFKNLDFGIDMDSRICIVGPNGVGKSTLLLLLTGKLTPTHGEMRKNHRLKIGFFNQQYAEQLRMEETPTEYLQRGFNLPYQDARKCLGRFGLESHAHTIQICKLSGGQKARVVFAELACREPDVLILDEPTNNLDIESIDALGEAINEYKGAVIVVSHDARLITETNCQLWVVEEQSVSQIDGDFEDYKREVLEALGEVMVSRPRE

| SMILES | IC50 (MOLT-4 cells) [µM] | IC50 (HeLa cells [4]) [µM] | IC50 [5] [µM] | IC50 (K562 cells [6]) [µM] | IC50 (HL-60 cells) [µM] | also measured |
| --- | --- | --- | --- | --- | --- | --- |
| NCC(O)CN1C(=O)C2C(C1=O)C1(c3ccccc3)CC2(c2ccccc2)C(c2ccccc2)=C1c1ccccc1 (stereo not shown) [Compound 6a, 4-[-3-(amino)-2-hydroxypropyl]-1,7,8,9-tetraphenyl-4-azatricyclo[5.2.1.0^2,6]dec-8-ene-3,5-dione] | 5 ± 0.59 |  |  |  |  | IC50 [1]: > 100 µM; IC50 (HeLa cells [2]): 20 ± 1.9 µM; IC50 (K562 cells [3]): 12 ± 1.5 µM |
| CCN(CC)CCN1C(=O)C2C(C1=O)C1(CC)C(=O)C2(CC)C(c2ccccc2)=C1c1ccccc1 (stereo not shown) [Compound 2] | 30 ± 2.3 | > 100 | > 100 | 4.5 ± 0.29 | > 100 | IC50 (CFPAC cells): > 1 mM |
| CN[C@@H]1C[C@H]2O[C@@](C)([C@@H]1OC)n1c3ccccc3c3c4c(c5c6ccccc6n2c5c31)C(=O)NC4 [staurosporine, reference compound] |  |  |  |  |  | apoptotic cells, early (LR) and late (UR) (K562 cells [7]): about 25% |
| CC(C)C[C@H](NC(=O)[C@H](Cc1ccccc1)NC(=O)c1cnccn1)B(O)O [bortezomib, reference compound] |  | 0.05 ± 0.01 | < 0.01 | 0.04 ± 0.01 | 0.3 ± 0.1 |  |
| CCc1c2c(nc3ccc(OC(=O)N4CCC(N5CCCCC5)CC4)cc13)-c1cc3c(c(=O)n1C2)COC(=O)[C@]3(O)CC [irinotecan, reference compound] |  | 200 ± 11 | 30 ± 3.7 | 10 ± 0.9 | 70 ± 2.5 |  |
| CCC12C(=O)C(CC)(C(c3ccccc3)=C1c1ccccc1)C1C(=O)N(CCCN(C)C)C(=O)C12 (stereo not shown) [Compound 4] | 30 ± 2 | > 100 | > 100 | 8 ± 0.53 | > 100 | IC50 (CFPAC cells): > 1 mM |
| CNC(=O)c1cc(Oc2ccc(NC(=O)Nc3ccc(Cl)c(C(F)(F)F)c3)cc2)ccn1 [sorafenib, reference compound] |  | 20 ± 2.6 | 20 ± 4.1 | 3 ± 0.3 | 15 ± 0.6 |  |
| COc1cccc2c1C(=O)c1c(O)c3c(c(O)c1C2=O)C[C@@](O)(C(=O)CO)C[C@@H]3O[C@H]1C[C@H](N)[C@H](O)[C@H](C)O1 [doxorubicin, reference compound] |  | 0.5 ± 0.01 | 0.1 ± 0.03 | 0.15 ± 0.01 | 0.15 ± 0.03 |  |
| Nc1ccn([C@@H]2O[C@H](CO)[C@@H](O)[C@@H]2O)c(=O)n1 [cytarabine, reference compound] |  | > 1000 | > 1000 | 300 ± 19 | 300 ± 18 |  |
| CCC12C(=O)C(CC)(C(c3ccccc3)=C1c1ccccc1)C1C(=O)N(CCN(C)C)C(=O)C12 (stereo not shown) [Compound 1] | 20 ± 2.7 | > 100 | > 100 | 10 ± 0.59 | > 100 | IC50 (CFPAC cells): > 1 mM |
| O=C(CCCCC1SCC2NC(=O)NC21)NCC(O)CN1C(=O)C2C(C1=O)C1(c3ccccc3)CC2(c2ccccc2)C(c2ccccc2)=C1c1ccccc1 (stereo not shown) [Compound 6b] | 1.5 ± 0.06 |  |  |  |  | IC50 [1]: 3.8 ± 0.22 µM; IC50 (HeLa cells [2]): 64 ± 10 µM; Description of protein identified, band 1 (ABC50; K562 lysate pull-down, SDS-PAGE band No. 1, LC-MS-MS/MS): Talin-1; Description of protein identified, band 2 (ABC50; K562 lysate pull-down, SDS-PAGE band No. 2, LC-MS-MS/MS): ATP-binding cassette sub-family F member 1 (ABCF1 or ABC50); Description of protein identified, band 3 (ABC50; K562 lysate pull-down, SDS-PAGE band No. 3, LC-MS-MS/MS): ABC50; Description of protein identified, band 4 (ABC50; K562 lysate pull-down, SDS-PAGE band No. 4, LC-MS-MS/MS): ABC50; Description of protein identified, band 5 (ABC50; K562 lysate pull-down, SDS-PAGE band No. 5, LC-MS-MS/MS): ABC50; Description of protein identified, band 6 (ABC50; K562 lysate pull-down, SDS-PAGE band No. 6, LC-MS-MS/MS): ABC50; protein identified by mass spectrometry in pulled-down bands (ABC50; K562 lysate, immobilized on streptavidin-agarose, five out of six bands): ABC50 protein was identified and significantly enriched; Western blot analysis of pull-down material for ABC50 (ABC50; K562 lysate, mouse monoclonal anti ABC50 antibodies): confirmed the presence of ABC50; IC50 (K562 cells [3]): 7 ± 1.2 µM |
